Test results reported in ChEMBL document CHEMBL4699582, “Discovery of OATD-01, a First-in-Class Chitinase Inhibitor as Potential New Therapeutics for Idiopathic Pulmonary Fibrosis” (J Med Chem, 2020).

Key:
[1] = biological target: Acidic mammalian chitinase (Homo sapiens, UniProt Q9BZP6); experiment: Inhibition of full-length C-terminal his-tagged human AMCase expressed in CHO-K1 cells assessed as reduction in chitinolytic activity using 4-methylumbelliferyl-beta-D-N,N-diacetylchitobioside hydrate as substrate after 60 mins by fluorometric assay; format: cell-based
Chain of Acidic mammalian chitinase (Homo sapiens, UniProt Q9BZP6) (Q9BZP6 whole entry): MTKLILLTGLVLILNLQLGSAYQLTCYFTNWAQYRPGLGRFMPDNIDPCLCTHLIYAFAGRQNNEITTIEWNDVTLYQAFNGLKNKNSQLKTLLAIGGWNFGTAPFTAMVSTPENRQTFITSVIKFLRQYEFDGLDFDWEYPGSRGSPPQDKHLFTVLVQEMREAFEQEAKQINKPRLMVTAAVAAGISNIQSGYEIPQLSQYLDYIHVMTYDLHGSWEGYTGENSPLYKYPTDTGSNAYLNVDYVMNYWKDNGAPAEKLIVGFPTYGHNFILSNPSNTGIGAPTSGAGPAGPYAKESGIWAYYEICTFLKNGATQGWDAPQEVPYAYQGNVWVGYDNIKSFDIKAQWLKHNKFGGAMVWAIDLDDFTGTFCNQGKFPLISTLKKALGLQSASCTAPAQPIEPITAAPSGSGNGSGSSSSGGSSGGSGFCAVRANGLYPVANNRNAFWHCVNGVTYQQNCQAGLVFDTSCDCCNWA

[2] = biological target: Voltage-gated inwardly rectifying potassium channel KCNH2 (Homo sapiens, UniProt Q12809); experiment: Inhibition of tracer red binding to human ERG expressed in HEK293 cell membranes measured after 2 to 6 hrs by fluorescence polarization assay
Chain of Voltage-gated inwardly rectifying potassium channel KCNH2 (Q12809 whole entry): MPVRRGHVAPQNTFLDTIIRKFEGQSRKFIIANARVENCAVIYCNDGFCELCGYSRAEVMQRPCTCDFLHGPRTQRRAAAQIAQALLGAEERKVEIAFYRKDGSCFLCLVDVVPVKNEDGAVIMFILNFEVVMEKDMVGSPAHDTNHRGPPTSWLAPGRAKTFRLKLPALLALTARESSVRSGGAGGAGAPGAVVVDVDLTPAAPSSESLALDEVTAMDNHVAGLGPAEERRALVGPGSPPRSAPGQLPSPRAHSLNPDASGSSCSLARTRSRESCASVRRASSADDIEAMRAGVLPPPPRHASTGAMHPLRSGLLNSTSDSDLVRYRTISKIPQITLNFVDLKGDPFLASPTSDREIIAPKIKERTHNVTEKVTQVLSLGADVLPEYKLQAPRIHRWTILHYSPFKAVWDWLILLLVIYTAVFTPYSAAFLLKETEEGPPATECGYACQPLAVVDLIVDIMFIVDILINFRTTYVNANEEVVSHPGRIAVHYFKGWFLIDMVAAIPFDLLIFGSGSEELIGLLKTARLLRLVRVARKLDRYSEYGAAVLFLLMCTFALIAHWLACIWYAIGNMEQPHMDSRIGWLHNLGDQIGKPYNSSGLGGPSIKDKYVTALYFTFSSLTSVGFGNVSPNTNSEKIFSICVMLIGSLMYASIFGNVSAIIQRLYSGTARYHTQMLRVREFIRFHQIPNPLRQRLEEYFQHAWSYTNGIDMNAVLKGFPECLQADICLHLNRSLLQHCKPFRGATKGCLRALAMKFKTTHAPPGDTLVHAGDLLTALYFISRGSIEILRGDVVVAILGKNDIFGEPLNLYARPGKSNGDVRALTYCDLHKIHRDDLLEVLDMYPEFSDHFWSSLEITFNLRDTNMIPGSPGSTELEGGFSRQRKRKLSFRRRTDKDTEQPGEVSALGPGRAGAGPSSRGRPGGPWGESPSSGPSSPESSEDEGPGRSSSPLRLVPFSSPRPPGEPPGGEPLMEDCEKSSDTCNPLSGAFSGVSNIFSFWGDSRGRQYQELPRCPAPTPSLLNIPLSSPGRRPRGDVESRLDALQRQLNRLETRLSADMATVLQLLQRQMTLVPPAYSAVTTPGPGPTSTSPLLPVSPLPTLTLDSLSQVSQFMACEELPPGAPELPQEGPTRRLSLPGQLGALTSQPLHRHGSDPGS

[3] = biological target: Acidic mammalian chitinase (Mus musculus, UniProt Q91XA9); experiment: Inhibition of full-length C-terminal his-tagged mouse AMCase expressed in expressed in CHO-K1 cells assessed as reduction in chitinolytic activity using 4-methylumbelliferyl-beta-D-N,N'-diacetylchitobioside hydrate as substrate after 60 mins by fluorometric assay; format: cell-based
Chain of Acidic mammalian chitinase (Mus musculus, UniProt Q91XA9) (Q91XA9 whole entry): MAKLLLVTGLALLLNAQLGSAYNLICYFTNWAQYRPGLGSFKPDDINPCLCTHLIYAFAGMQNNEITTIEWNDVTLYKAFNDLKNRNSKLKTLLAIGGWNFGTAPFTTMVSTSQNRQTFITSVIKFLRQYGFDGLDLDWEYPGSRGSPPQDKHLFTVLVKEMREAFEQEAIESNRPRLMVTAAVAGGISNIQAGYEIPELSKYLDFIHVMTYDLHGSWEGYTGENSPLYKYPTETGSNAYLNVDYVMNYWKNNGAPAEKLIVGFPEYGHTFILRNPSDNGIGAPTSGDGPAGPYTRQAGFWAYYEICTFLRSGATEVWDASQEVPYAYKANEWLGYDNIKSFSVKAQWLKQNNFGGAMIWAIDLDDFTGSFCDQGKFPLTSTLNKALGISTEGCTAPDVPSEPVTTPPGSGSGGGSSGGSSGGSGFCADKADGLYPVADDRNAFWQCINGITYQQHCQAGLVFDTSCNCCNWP

[4] = biological target: Chitotriosidase-1 (Mus musculus, UniProt Q9D7Q1); experiment: biochemical
Chain of Chitotriosidase-1 (Mus musculus, UniProt Q9D7Q1) (Q9D7Q1 whole entry): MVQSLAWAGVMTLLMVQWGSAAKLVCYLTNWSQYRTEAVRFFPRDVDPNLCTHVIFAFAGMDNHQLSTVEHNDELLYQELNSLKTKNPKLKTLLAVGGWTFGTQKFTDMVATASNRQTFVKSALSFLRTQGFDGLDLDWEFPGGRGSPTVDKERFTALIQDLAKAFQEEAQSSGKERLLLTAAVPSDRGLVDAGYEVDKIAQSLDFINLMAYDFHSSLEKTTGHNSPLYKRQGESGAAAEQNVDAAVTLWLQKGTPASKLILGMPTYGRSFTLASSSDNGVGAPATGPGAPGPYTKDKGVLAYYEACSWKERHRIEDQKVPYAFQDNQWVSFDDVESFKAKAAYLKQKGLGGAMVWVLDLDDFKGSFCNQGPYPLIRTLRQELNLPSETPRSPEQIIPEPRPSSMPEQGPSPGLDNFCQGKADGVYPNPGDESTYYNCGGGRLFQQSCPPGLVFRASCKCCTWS
Description: Inhibition of recombinant full-length C-terminal his-tagged mouse CHIT1 expressed in CHO-K1 cells assessed as reduction in chitinolytic activity using 4-methylumbelliferyl-beta-D-N,N',N"-triacetylchitotrioside as substrate after 60 mins by fluorometric assay

[5] = biological target: Chitotriosidase-1 (Homo sapiens, UniProt Q13231); format: cell-based; settings: hek293f
Chain of Chitotriosidase-1 (Homo sapiens, UniProt Q13231) (Q13231 whole entry): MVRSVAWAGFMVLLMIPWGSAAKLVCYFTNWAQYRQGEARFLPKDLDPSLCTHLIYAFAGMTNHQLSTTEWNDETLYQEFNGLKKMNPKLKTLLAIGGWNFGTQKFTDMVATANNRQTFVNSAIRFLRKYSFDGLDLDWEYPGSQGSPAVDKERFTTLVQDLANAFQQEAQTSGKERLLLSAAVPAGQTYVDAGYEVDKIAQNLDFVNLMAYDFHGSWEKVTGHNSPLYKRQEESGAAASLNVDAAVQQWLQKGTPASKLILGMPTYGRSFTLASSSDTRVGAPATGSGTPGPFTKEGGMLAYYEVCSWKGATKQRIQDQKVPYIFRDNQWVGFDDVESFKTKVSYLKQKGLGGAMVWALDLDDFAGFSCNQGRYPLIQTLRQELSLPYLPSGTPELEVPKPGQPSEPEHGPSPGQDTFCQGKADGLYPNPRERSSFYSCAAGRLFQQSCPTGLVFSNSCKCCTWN

Structure (SMILES)	IC50 [1]	IC50 [2]	IC50 ([2]; hek293)	IC50 [3]	IC50 [4]	IC50 [5]
CC(C)CN1C[C@H](Cc2ccc(Cl)cc2)N(C2CCN(c3n[nH]c(N)n3)CC2)C[C@@H]1C	0.084 µM	2.4 µM	–	–	–	–
CN1CCN(C2CCN(c3nnc(N)[nH]3)CC2)[C@@H](Cc2ccc(Cl)cc2)C1	–	–	Not Active	–	–	–
Nc1nnc(N2CCC(N3Cc4ccccc4OC[C@@H]3Cc3ccc(Cl)cc3)CC2)[nH]1	–	22 µM	–	0.059 µM	0.137 µM	–
C[C@@H]1CN(C2CCN(c3nnc(N)[nH]3)CC2)[C@@H](Cc2ccc(Cl)cc2)CO1	–	–	–	1 µM	7.2 µM	–
CNC(=O)[C@H]1CN(C2CCN(c3nc(N)n[nH]3)CC2)[C@@H](Cc2ccc(Cl)cc2)CO1	–	–	Not Active	0.0078 µM	0.049 µM	–
COC[C@H]1CN(C2CCN(c3nc(N)n[nH]3)CC2)[C@@H](Cc2ccc(Cl)cc2)CO1	–	100 µM	–	0.0077 µM	0.03 µM	–
CC(C)C[C@H]1CN(C2CCN(c3nnc(N)[nH]3)CC2)[C@@H](Cc2ccc(Cl)cc2)CO1	–	8.5 µM	–	0.001 µM	0.015 µM	–
Nc1n[nH]c(N2CCC(N3CC(=O)NC[C@@H]3Cc3ccc(Cl)cc3)CC2)n1	–	80 µM	–	0.66 µM	5.3 µM	–
Nc1n[nH]c(N2CCC(N3CCNC(=O)[C@@H]3Cc3ccc(Cl)cc3)CC2)n1	–	–	–	22 µM	27 µM	Not Active
CC(C)(O)[C@H]1CN(C2CCN(c3nc(N)n[nH]3)CC2)[C@@H](Cc2ccc(Cl)cc2)CO1	–	–	Not Active	0.0055 µM	0.029 µM	–
CC[C@H]1CN(C2CCN(c3nc(N)n[nH]3)CC2)[C@@H](Cc2ccc(Cl)cc2)CO1	–	33 µM	–	0.0013 µM	–	–
Nc1nnc(N2CCC(N3C[C@H](CO)OC[C@@H]3Cc3ccc(Cl)cc3)CC2)[nH]1	–	72 µM	–	0.0067 µM	0.025 µM	–
Nc1nnc(N2CCC(N3CCS(=O)(=O)C[C@@H]3Cc3ccc(Cl)cc3)CC2)[nH]1	–	–	–	3 µM	1.7 µM	–
CC(C)[C@H]1CN(C2CCN(c3nc(N)n[nH]3)CC2)[C@@H](Cc2ccc(Cl)cc2)CO1	–	34 µM	–	0.0021 µM	0.019 µM	–
